Like-named read-outs stand apart in the source and are kept apart here.
How the values were obtained:
[1] = system: Alternaria solani (F129L); assay: Micro titer plate test against Alternaria solani causing early blight (ALTESO F129L); format: cell-based; conditions: Alternaria solani, 168 h
[2] = system: Colletotrichum orbiculare; assay: Micro titer plate test against Colletotrichum orbiculare causing anthracnose (COLLLA); format: cell-based; conditions: Colletotrichum orbiculare, 168 h, read-out: Fungal growth (%) COLLLA
Pyricularia oryzae = assay: microbe, parasite or virus in culture; format: cell-based; conditions: Pyricularia oryzae, 168 h, read-out: Fungal growth (%) PYRIOR
Septoria tritici = assay: microbe, parasite or virus in culture; format: cell-based; conditions: Zymoseptoria tritici, 168 h, read-out: Fungal growth (%) SEPTTR
Alternaria solani (wt) = assay: microbe, parasite or virus in culture; format: cell-based; conditions: Alternaria solani, 168 h, read-out: Fungal growth (%) ALTESO wt
Microdochium nivale = assay: Micro titer plate test against Microdochium nivale causing snow mould (MONGNI); format: cell-based; conditions: for activity at 0.016 ppm: Microdochium nivale, 168 h, read-out: Fungal growth (%) MONGNI
Leptosphaeria nodorum = assay: Micro titer plate test against Leptosphaeria nodorum causing wheat leaf spots (LEPTNO); format: cell-based; conditions: for activity at 0.063 ppm: Parastagonospora nodorum, 168 h, read-out: Fungal growth (%) LEPTNO
Cercospora sojina = assay: microbe, parasite or virus in culture; format: cell-based; conditions: for activity at 4 ppm: Cercospora sojina, 168 h, read-out: Fungal growth (%) CERCSO
Pyrenophora teres (wt) = assay: Micro titer plate test against Pyrenophora teres causing net blotch on barley (PYRNTE wt); format: cell-based; conditions: 168 h, read-out: Fungal growth (%) PYRNTE wt
[3] = system: Phakopsora pachyrhizi (F129L); assay: Protective control of soybean rust on soybeans (PHAKPA P2); format: in vivo; conditions: for % PHAKPA (F129L) Disease level P2 at 4 ppm: protective P2, 4 ppm; for % PHAKPA (F129L) Disease level P2 at 4 ppm / % PHAKPA (F129L) Disease level P2 at 16 ppm: soybean rust F129L; for % PHAKPA (F129L) Disease level P2 at 16 ppm: protective P2, 16 ppm
[4] = system: Phakopsora pachyrhizi (F129L); assay: Protective control of soybean rust on soybeans (PHAKPA P6); format: in vivo; conditions: for % PHAKPA (F129L) Disease level P6 at 4 ppm: protective P6, 4 ppm; for % PHAKPA (F129L) Disease level P6 at 4 ppm / % PHAKPA (F129L) Disease level P6 at 16 ppm: soybean rust F129L; for % PHAKPA (F129L) Disease level P6 at 16 ppm: protective P6, 16 ppm
[5] = 0.016 ppm, read-out: Fungal growth (%) ALTESO F129L
[6] = P2 protective, % diseased leaf area
[7] = P6 protective, % diseased leaf area

| SMILES | activity at 0.016 ppm [1, 5] [%] | activity at 0.016 ppm (Pyricularia oryzae) [%] | activity at 0.016 ppm (Alternaria solani (wt)) [%] | activity at 0.063 ppm (Leptosphaeria nodorum) [%] | activity at 4 ppm (Cercospora sojina; 4 ppm) [%] | % PHAKPA (F129L) Disease level P2 at 4 ppm [3] [%] | % PHAKPA (F129L) Disease level P2 at 16 ppm [3] [%] | % PHAKPA (F129L) Disease level P6 at 4 ppm [4] [%] | % PHAKPA (F129L) Disease level P6 at 16 ppm [4] [%] | also measured |
| --- | --- | --- | --- | --- | --- | --- | --- | --- | --- | --- |
| CNC(=O)/C(=N/OC)c1cccc(C)c1CO/N=C(/c1cccc(C)c1)C1CC1 [drawing 958] | 93 | 81 | 89 |  |  |  |  |  |  | activity at 0.063 ppm [2]: 93%; activity at 0.25 ppm (Septoria tritici): 87% |
| Cc1cccc(-n2nnn(C)c2=O)c1COc1ccn(-c2ccc(Cl)cc2)n1 [drawing 928] | 100 | 87 | 98 |  |  |  |  |  |  | activity at 0.016 ppm (Microdochium nivale): 97% |
| CO/N=C(/C(=O)OC)c1cccc(C)c1CO/N=C(\C)c1cccc(OC(F)(F)F)c1 [drawing 938] |  |  |  |  |  |  |  |  |  | activity at 4 ppm ([1]; 4 ppm, read-out: Fungal growth (%) ALTESO F129L): 87%; activity at 0.063 ppm [2]: 77% |
| CNC(=O)/C(=N/OC)c1cccc(C)c1CO/N=C(\SC)c1cccc(C(F)(F)F)c1 [drawing 944] | 85 | 49 |  | 93 | 66 |  |  |  |  | activity at 0.016 ppm (Microdochium nivale): 84% |
| CO/N=C(/C(=O)OC)c1cccc(C)c1CO/N=C(\SC)c1cccc(Cl)c1 [drawing 963] |  |  |  | 88 | 62 |  |  |  |  | activity at 0.25 ppm (Pyrenophora teres (wt)): 57%; activity at 0.016 ppm (Microdochium nivale): 95% |
| CO/N=C(/C(=O)OC)c1cccc(C)c1CO/N=C(\OC)c1cccc(C(F)(F)F)c1 [drawing 942] |  | 58 |  | 100 | 56 |  |  |  |  |  |
| CO/N=C(/C(=O)OC)c1cccc(C)c1CO/N=C(\C)c1cccc(OC(F)(F)F)c1 [drawing 934] |  | 100 | 94 |  | 33 |  |  |  |  | activity at 0.025 ppm (Pyrenophora teres (wt)): 84% |
| CNC(=O)/C(=N/OC)c1cccc(C)c1CO/N=C(\OC)c1cccc(C)c1 [drawing 957] | 95 | 80 | 93 |  |  |  |  |  |  | activity at 0.063 ppm [2]: 81%; activity at 0.25 ppm (Septoria tritici): 100% |
| CNC(=O)/C(=N/OC)c1cccc(C)c1CO/N=C(\SC)c1cccc(Cl)c1 [drawing 966] | 90 | 100 |  |  |  |  |  |  |  | activity at 0.063 ppm [2]: 82%; activity at 0.25 ppm (Septoria tritici): 59%; activity at 0.25 ppm (Alternaria solani (wt); 0.25 ppm): 43% |
| CO/N=C(/C(=O)OC)c1cccc(C)c1CO/N=C(/c1cccc(C)c1)C1CC1 [drawing 955] | 87 |  | 100 | 100 | 87 |  |  |  |  | activity at 0.25 ppm (Pyrenophora teres (wt)): 78% |
| CNC(=O)/C(=N/OC)c1cccc(C)c1CO/N=C(\OC)c1cccc(C(F)(F)F)c1 [drawing 946] | 87 | 39 | 100 | 95 |  |  |  |  |  | activity at 0.25 ppm (Septoria tritici): 77% |
| CO/N=C(/C(=O)OC)c1cccc(C)c1CO/N=C(\C)c1cccc(C(F)(F)F)c1 [Ex. 9] |  | 38 | 73 | 67 | 11 | 35 | 23 | 41 | 4 | PHAKPA (F129L) Disease level (%) P2 at 16 ppm [3, 6]: 23%; activity at 0.025 ppm (Pyrenophora teres (wt)): 44%; PHAKPA (F129L) Disease level (%) P6 at 4 ppm ([4]; P6 protective, 4 ppm, % diseased leaf area): 41% |
| CO/N=C(/C(=O)OC)c1cccc(C)c1CO/N=C(\SC)c1cccc(C)c1 [drawing 953] | 66 |  | 67 | 85 | 71 |  |  |  |  | activity at 0.25 ppm (Pyrenophora teres (wt)): 59% |
| CO/N=C(/C(=O)OC)c1cccc(C)c1CO/N=C(\SC)c1cccc(Cl)c1 [drawing 960] | 100 | 88 | 94 |  |  |  |  |  |  | activity at 0.063 ppm [2]: 82%; activity at 0.25 ppm (Septoria tritici): 39% |
| CO/N=C(/C(=O)OC)c1cccc(C)c1CO/N=C(/c1cccc(Cl)c1)C1CC1 [drawing 961] | 89 | 83 | 81 |  |  |  |  |  |  | activity at 0.063 ppm [2]: 89%; activity at 0.25 ppm (Septoria tritici): 39% |
| CNC(=O)/C(=N/OC)c1cccc(C)c1CO/N=C(\C)c1cccc(C(F)(F)F)c1 [Ex. 8] |  | 13 | 56 | 70 |  | 4 | 0 | 5 | 0 | Fungal growth (%) LEPTNO (Leptosphaeria nodorum): 70%; PHAKPA (F129L) Disease level (%) P2 at 1 ppm ([3]; P2 protective, 1 ppm, % diseased leaf area): 6%; PHAKPA (F129L) Disease level (%) P2 at 4 ppm ([3]; P2 protective, 4 ppm, % diseased leaf area): 1%; activity at 0.016 ppm ([1]; read-out: Fungal growth (%) ALTESO F129L, 0.016 ppm): 55%; Fungal growth (%) CERCSO (Cercospora sojina; 4 ppm): 27%; activity at 4 ppm (Cercospora sojina): 27%; Fungal growth (%) MONGNI (Microdochium nivale): 54%; activity at 0.016 ppm (Microdochium nivale): 54%; activity at 0.25 ppm (Septoria tritici): 57% |
| CO/N=C(/C(=O)OC)c1cccc(C)c1CO/N=C(\OC)c1cccc(C)c1 [drawing 954] | 81 |  | 93 | 65 | 67 |  |  |  |  | activity at 0.25 ppm (Pyrenophora teres (wt)): 53% |
| CO/N=C(/C(=O)OC)c1cccc(C)c1CO/N=C(/c1cccc(Cl)c1)C1CC1 [drawing 964] |  |  |  |  | 61 |  |  |  |  | activity at 0.25 ppm (Pyrenophora teres (wt)): 69% |
| CNC(=O)/C(=N/OC)c1cccc(C)c1CO/N=C(\OC)c1cccc(C(F)(F)F)c1 [drawing 948] |  |  |  |  | 60 |  |  |  |  | activity at 0.016 ppm (Microdochium nivale): 80% |
| CO/N=C(/C(=O)OC)c1cccc(C)c1CO/N=C(\C)c1c(F)ccc(F)c1OC(F)(F)F [compound 366] |  |  |  |  |  | 53 | 13 | 83 | 12 |  |
| CNC(=O)/C(=N/OC)c1cccc(C)c1CO/N=C(\C)c1c(F)cc(F)cc1OC(F)(F)F [compound 344] |  |  |  |  |  | 6 | 0 | 16 | 0 |  |
| CO/N=C(/C(=O)OC)c1cccc(C)c1CO/N=C(\C)c1c(F)cccc1Cl [compound 283] |  |  |  |  |  | 83 | 30 | 87 | 22 |  |
| CCc1cccc(/C(=N\OC)C(=O)OC)c1CO/N=C(\C)c1cccc(C(F)(F)F)c1 [compound 61] |  |  |  |  |  | 70 | 15 | 90 | 18 |  |
| CO/N=C(/C(=O)OC)c1cccc(C)c1CO/N=C(\C)c1cccc(OC(F)(F)F)c1 [Ex. 28] |  |  |  |  |  |  | 0 |  | 0 | PHAKPA (F129L) Disease level (%) P2 at 16 ppm [3, 6]: 30%; PHAKPA (F129L) Disease level (%) P6 at 16 ppm [4, 7]: 18% |
| CNC(=O)/C(=N/OC)c1cccc(C)c1CO/N=C(\C)c1ccc(C#N)c(C(F)(F)F)c1 [compound 17] |  |  |  |  |  | 70 | 50 | 63 | 57 |  |
| CO/N=C(/C(=O)OC)c1cccc(C)c1CO/N=C(\C)c1ccc(C)cc1 [Ex. 5, Methyl (2E)-2-methoxyimino-2-[3-methyl-2-[[(E)-1-(p-tolyl)ethylideneamino]oxymethyl]phenyl]acetate] |  |  |  |  |  | 28 | 1 | 50 | 4 | PHAKPA (F129L) Disease level (%) P2 at 16 ppm [3, 6]: 1%; PHAKPA (F129L) Disease level (%) P6 at 16 ppm [4, 7]: 4% |
| CO/N=C(/C(=O)OC)c1cccc(C)c1CO/N=C(\C)c1cc(Cl)ccc1C(F)(F)F [compound 251] |  |  |  |  |  | 80 | 80 | 80 | 80 |  |
| CO/N=C(\C)COc1cccc(/C(C)=N/OCc2c(C)cccc2/C(=N\OC)C(=O)OC)c1 [compound 227] |  |  |  |  |  | 100 | 47 | 100 | 57 |  |
| CO/N=C(/C(=O)OC)c1cccc(C)c1CO/N=C(\C)c1ccc(F)cc1F [compound 266] |  |  |  |  |  | 67 | 18 | 90 | 43 |  |

Reference: patent US20230172204A1 (BASF SE, priority 2020, published 2023)
